{"source": "the supplement of paper PMC11208160", "assay": "recombinant UMI read abundance after kanamycin selection (control-corrected) (log10(CPM+1)); higher = more efficient recombination; extreme values may be limits of the assay; sequences stand for … in AGTGCAGAGAAAATCGGCCAGTTTTCTCTGCCTGCAGTCCGCATGCCGTGGGACCCCTTGGGTTCTAACCTGTTGCCTAGATTTATGCAGCGGACTGCCTTTCTCCCAAAGTGATAAACCGG…AGGTTGGTTTCACT; site = the 11-nt donor", "protocol": "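Pooled E. coli donor-specificity screen for the IS621 bridge recombinase. Each library member carries a reprogrammed 11-nt donor and a full-length LE bridge RNA expressed in cis from the natural promoter, with a paired donor-binding loop (8-nt LDG + 4-nt RDG) and a target-binding loop fixed to T5. It is co-electroporated with a T5 target plasmid; recombinase is induced with 0.07 mM IPTG and recombinants are selected on kanamycin. UMIs are counted as CPM, averaged over two biological replicates and corrected by the unselected control. Molecule = full bridge RNA written as DNA, built from the T5 scaffold: LDG = donor specificity nt 1-8, RDG = reverse complement of nt 8-11.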", "data": [{"sequence": "ACACGATCATGGACCGGTTTTCCCGGTAATCCGTATTTGTC (site ACACGATCTGA)", "values": [{"measurement": "recombinant UMI read abundance (log10)", "result": 2.46}]}, {"sequence": "ACACGTCCATGGACCGGTTTTCCCGGTAATCCGTATTTGAC (site ACACATCCTGT)", "values": [{"measurement": "recombinant UMI read abundance (log10)", "result": 0}]}, {"sequence": "ACACGTCCATGGACCGGTTTTCCCGGTAATCCGTATTTGAC (site ACACCTCCTGT)", "values": [{"measurement": "recombinant UMI read abundance (log10)", "result": 0}]}, {"sequence": "ACACGTCCATGGACCGGTTTTCCCGGTAATCCGTATTTGAC (site ACACGTCCTGT)", "values": [{"measurement": "recombinant UMI read abundance (log10)", "result": 0.959}]}, {"sequence": "ACACGTCCATGGACCGGTTTTCCCGGTAATCCGTATTTGAC (site ACACTTCCTGT)", "values": [{"measurement": "recombinant UMI read abundance (log10)", "result": 0}]}, {"sequence": "ACACTAACATGGACCGGTTTTCCCGGTAATCCGTATTTGTC (site ACACAAACTGA)", "values": [{"measurement": "recombinant UMI read abundance (log10)", "result": 0}]}, {"sequence": "ACACTAACATGGACCGGTTTTCCCGGTAATCCGTATTTGTC (site ACACCAACTGA)", "values": [{"measurement": "recombinant UMI read abundance (log10)", "result": 0.94}]}, {"sequence": "ACACTAACATGGACCGGTTTTCCCGGTAATCCGTATTTGTC (site ACACGAACTGA)", "values": [{"measurement": "recombinant UMI read abundance (log10)", "result": 0}]}, {"sequence": "ACACTAACATGGACCGGTTTTCCCGGTAATCCGTATTTGTC (site ACACTAACTGA)", "values": [{"measurement": "recombinant UMI read abundance (log10)", "result": 2.12}]}, {"sequence": "ACACTATCATGGACCGGTTTTCCCGGTAATCCGTATTTGTA (site ACACTATCTTA)", "values": [{"measurement": "recombinant UMI read abundance (log10)", "result": 2.98}]}, {"sequence": "ACACTATCATGGACCGGTTTTCCCGGTAATCCGTATTTGTA (site ACAGTATCTTG)", "values": [{"measurement": "recombinant UMI read abundance (log10)", "result": 0}]}, {"sequence": "ACACTTACATGGACCGGTTTTCCCGGTAATCCGTATTTGTT (site ACACTTACTAA)", "values": [{"measurement": "recombinant UMI read abundance (log10)", "result": 0.147}]}, {"sequence": "ACACTTTCATGGACCGGTTTTCCCGGTAATCCGTATTTGCA (site ACACTTTCTTG)", "values": [{"measurement": "recombinant UMI read abundance (log10)", "result": 2.82}]}, {"sequence": "ACACTTTCATGGACCGGTTTTCCCGGTAATCCGTATTTGCA (site ACAGTATCTTG)", "values": [{"measurement": "recombinant UMI read abundance (log10)", "result": 1.19}]}, {"sequence": "ACAGAATCATGGACCGGTTTTCCCGGTAATCCGTATTTGCA (site ACAGAATCTTG)", "values": [{"measurement": "recombinant UMI read abundance (log10)", "result": 2.9}]}, {"sequence": "ACAGAATCATGGACCGGTTTTCCCGGTAATCCGTATTTGCA (site ACAGCATCTTG)", "values": [{"measurement": "recombinant UMI read abundance (log10)", "result": 2.64}]}, {"sequence": "ACAGAATCATGGACCGGTTTTCCCGGTAATCCGTATTTGCA (site ACAGGATCTTG)", "values": [{"measurement": "recombinant UMI read abundance (log10)", "result": 2.45}]}, {"sequence": "ACAGAATCATGGACCGGTTTTCCCGGTAATCCGTATTTGCA (site ACAGTATCTTG)", "values": [{"measurement": "recombinant UMI read abundance (log10)", "result": 1.8}]}, {"sequence": "ACAGACTCATGGACCGGTTTTCCCGGTAATCCGTATTTGCA (site ACAGACTCTTG)", "values": [{"measurement": "recombinant UMI read abundance (log10)", "result": 2.44}]}, {"sequence": "ACAGACTCATGGACCGGTTTTCCCGGTAATCCGTATTTGCA (site ACAGTATCTTG)", "values": [{"measurement": "recombinant UMI read abundance (log10)", "result": 0}]}, {"sequence": "ACAGAGGCATGGACCGGTTTTCCCGGTAATCCGTATTTGTG (site ACAGAGGCTCA)", "values": [{"measurement": "recombinant UMI read abundance (log10)", "result": 1.14}]}, {"sequence": "ACAGGATCATGGACCGGTTTTCCCGGTAATCCGTATTTGCA (site ACAGAATCTTG)", "values": [{"measurement": "recombinant UMI read abundance (log10)", "result": 2.47}]}, {"sequence": "ACAGGATCATGGACCGGTTTTCCCGGTAATCCGTATTTGCA (site ACAGCATCTTG)", "values": [{"measurement": "recombinant UMI read abundance (log10)", "result": 2.01}]}, {"sequence": "ACAGGATCATGGACCGGTTTTCCCGGTAATCCGTATTTGCA (site ACAGGATCTTG)", "values": [{"measurement": "recombinant UMI read abundance (log10)", "result": 1.77}]}, {"sequence": "ACAGGATCATGGACCGGTTTTCCCGGTAATCCGTATTTGCA (site ACAGTATCTTG)", "values": [{"measurement": "recombinant UMI read abundance (log10)", "result": 2.38}]}, {"sequence": "ACAGTAACATGGACCGGTTTTCCCGGTAATCCGTATTTGCT (site ACAGTAACTAG)", "values": [{"measurement": "recombinant UMI read abundance (log10)", "result": 2.7}]}, {"sequence": "ACAGTAACATGGACCGGTTTTCCCGGTAATCCGTATTTGCT (site ACAGTATCTTG)", "values": [{"measurement": "recombinant UMI read abundance (log10)", "result": 0.994}]}, {"sequence": "ACAGTACCATGGACCGGTTTTCCCGGTAATCCGTATTTGCA (site ACAGTAACTTG)", "values": [{"measurement": "recombinant UMI read abundance (log10)", "result": 0}]}, {"sequence": "ACAGTACCATGGACCGGTTTTCCCGGTAATCCGTATTTGCA (site ACAGTACCTTG)", "values": [{"measurement": "recombinant UMI read abundance (log10)", "result": 0.00459}]}, {"sequence": "ACAGTACCATGGACCGGTTTTCCCGGTAATCCGTATTTGCA (site ACAGTAGCTTG)", "values": [{"measurement": "recombinant UMI read abundance (log10)", "result": 0.138}]}, {"sequence": "ACAGTACCATGGACCGGTTTTCCCGGTAATCCGTATTTGCA (site ACAGTATCTTG)", "values": [{"measurement": "recombinant UMI read abundance (log10)", "result": 1.71}]}, {"sequence": "ACAGTAGCATGGACCGGTTTTCCCGGTAATCCGTATTTGCG (site ACAGTAGCTCG)", "values": [{"measurement": "recombinant UMI read abundance (log10)", "result": 2.42}]}, {"sequence": "ACAGTAGCATGGACCGGTTTTCCCGGTAATCCGTATTTGCG (site ACAGTATCTTG)", "values": [{"measurement": "recombinant UMI read abundance (log10)", "result": 0.736}]}, {"sequence": "ACAGTATCATGGACCGGTTTTCCCGGTAATCCGTATTTGAA (site ACAGTATCTTA)", "values": [{"measurement": "recombinant UMI read abundance (log10)", "result": 2.34}]}, {"sequence": "ACAGTATCATGGACCGGTTTTCCCGGTAATCCGTATTTGAA (site ACAGTATCTTC)", "values": [{"measurement": "recombinant UMI read abundance (log10)", "result": 1.73}]}, {"sequence": "ACAGTATCATGGACCGGTTTTCCCGGTAATCCGTATTTGAA (site ACAGTATCTTG)", "values": [{"measurement": "recombinant UMI read abundance (log10)", "result": 0.829}]}]}
